Legend:
[1] = Index of hydrophobicity (k'); format: ADME
[2] = molecular target: T1, Adenosine A2 receptor (UniProt P29275+P29274); settings: Canis lupus familiaris
Description: Molar potency ratio (MPR) against adenosine A2 receptor of canine coronary artery

[3] = molecular target: T1, Adenosine A2 receptor; assay: Acidic dissociation constant(pKa) against A2 adenosine receptor of coronary artery; format: protein assay; settings: Canis lupus familiaris
[4] = molecular target: T1, Adenosine A2 receptor; assay: Association constant against A2 adenosine receptor; format: protein assay; settings: Canis lupus familiaris
[5] = molecular target: T1, Adenosine A2 receptor; assay: Maximum increase in coronary flow, percent of control, and nucleoside concentration in coronary plasma at 12 uM; format: functional; settings: Canis lupus familiaris
[6] = Estimated ionization constant(pKa); format: physicochemical
[7] = molecular target: T1, Adenosine A2 receptor; settings: Canis lupus familiaris; remark: listed apart in the source
[8] = molecular target: T1, Adenosine A2 receptor; assay: Maximum increase in coronary flow, percent of control, and nucleoside concentration in coronary plasma at 28 uM; format: functional; settings: Canis lupus familiaris
[9] = molecular target: T1, Adenosine A2 receptor; assay: Molar potency ratio (MPR) against A2 adenosine receptor of coronary artery; format: functional; settings: Canis lupus familiaris
[10] = molecular target: T1, Adenosine A2 receptor; assay: Maximum increase in coronary flow, percent of control, and nucleoside concentration in coronary plasma at 17 uM; format: functional; settings: Canis lupus familiaris

T1 sequence (P29274 whole entry, looked up): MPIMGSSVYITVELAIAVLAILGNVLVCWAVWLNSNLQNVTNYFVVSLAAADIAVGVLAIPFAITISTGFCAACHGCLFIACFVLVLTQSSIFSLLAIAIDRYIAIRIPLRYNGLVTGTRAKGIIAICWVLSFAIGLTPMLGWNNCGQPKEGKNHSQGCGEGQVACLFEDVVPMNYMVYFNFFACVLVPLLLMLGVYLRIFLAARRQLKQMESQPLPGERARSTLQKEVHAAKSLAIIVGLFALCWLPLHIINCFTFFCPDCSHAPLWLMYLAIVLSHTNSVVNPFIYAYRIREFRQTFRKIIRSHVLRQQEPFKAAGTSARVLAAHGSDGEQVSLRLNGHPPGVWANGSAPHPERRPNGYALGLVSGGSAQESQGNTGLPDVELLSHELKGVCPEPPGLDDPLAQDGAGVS
T1 sequence (P29275 whole entry, looked up): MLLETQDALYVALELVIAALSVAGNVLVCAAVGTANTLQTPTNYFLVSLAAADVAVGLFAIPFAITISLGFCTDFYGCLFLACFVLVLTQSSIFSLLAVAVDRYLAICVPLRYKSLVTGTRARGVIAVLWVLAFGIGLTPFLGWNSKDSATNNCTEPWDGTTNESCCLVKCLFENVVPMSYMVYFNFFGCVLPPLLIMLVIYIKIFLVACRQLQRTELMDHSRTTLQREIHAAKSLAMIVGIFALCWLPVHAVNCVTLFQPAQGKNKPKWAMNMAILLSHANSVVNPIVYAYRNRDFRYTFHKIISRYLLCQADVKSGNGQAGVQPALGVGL

| Compound | k' [1] | MPR [2] | pka [3] | other results |
| --- | --- | --- | --- | --- |
| OC[C@H]1O[C@@H](n2cnc3c(Nc4ccccc4)ncnc32)[C@H](O)[C@@H]1O [N6-PHENYLADENOSINE] | 1.29 | 1.4 | 2.73 | K [4]: 3160 M⁻¹ |
| OC[C@H]1OC(n2cnc3c(NCCc4ccccn4)ncnc32)[C@H](O)[C@@H]1O (some centres undefined) | 0.39 | 1 | < 1 |  |
| OC[C@H]1O[C@@H](n2cnc3c(NCc4ccccc4)ncnc32)[C@H](O)[C@@H]1O [N6-BENZYLADENOSINE] | 1.21 | 0.52 | 3.07 |  |
| COc1cccc(Nc2ncnc3c2ncn3C2O[C@H](CO)[C@@H](O)[C@H]2O)c1 (some centres undefined) | 1.32 | 0.26 | 2.59 |  |
| OC[C@H]1O[C@@H](n2cnc3c(NCc4ccc(Cl)cc4)ncnc32)[C@H](O)[C@@H]1O | 3.44 | 0.005 | 3.61 |  |
| Cc1cccc(Nc2ncnc3c2ncn3C2O[C@H](CO)[C@@H](O)[C@H]2O)c1 (some centres undefined) | 3.28 | 0.023 | 2.79 |  |
| OC[C@H]1OC(n2cnc3c(Nc4ccc(F)cc4)ncnc32)[C@H](O)[C@@H]1O (some centres undefined) | 1.68 | 1.5 | 2.65 | K [4]: 3560 M⁻¹ |
| OC[C@H]1OC(n2cnc3c(Nc4ccc(Cl)cc4)ncnc32)[C@H](O)[C@@H]1O (some centres undefined) | 4.96 | 0.94 | 2.46 |  |
| Cc1cc(C)cc(Nc2ncnc3c2ncn3C2O[C@H](CO)[C@@H](O)[C@H]2O)c1 (some centres undefined) | 6.43 |  |  | Activity [5]: 4% |
| Cc1ccccc1Nc1ncnc2c1ncn2C1O[C@H](CO)[C@@H](O)[C@H]1O (some centres undefined) | 1.4 | 0.65 | 2.98 |  |
| OC[C@H]1O[C@@H](n2cnc3c(NCc4ccccc4Cl)ncnc32)[C@H](O)[C@@H]1O | 3.12 | 1.2 | 3.06 |  |
| COc1ccccc1CCNc1ncnc2c1ncn2C1O[C@H](CO)[C@@H](O)[C@H]1O (some centres undefined) | 2.57 | 1.2 |  | pKa [6]: 3.56 |
| COc1ccc(CNc2ncnc3c2ncn3[C@@H]2O[C@H](CO)[C@@H](O)[C@H]2O)cc1 | 1.66 |  | 3.06 | MPR [7]: 0.04 |
| OC[C@H]1OC(n2cnc3c(Nc4ccccc4Cl)ncnc32)[C@H](O)[C@@H]1O (some centres undefined) | 2.36 | 0.42 | 2.76 |  |
| COc1ccccc1Nc1ncnc2c1ncn2C1O[C@H](CO)[C@@H](O)[C@H]1O (some centres undefined) | 1.93 | 0.28 | 2.97 |  |
| OC[C@H]1OC(n2cnc3c(NCc4ccccc4F)ncnc32)[C@H](O)[C@@H]1O (some centres undefined) | 1.57 | 0.57 | 3.08 |  |
| Cc1ccccc1CCNc1ncnc2c1ncn2C1O[C@H](CO)[C@@H](O)[C@H]1O (some centres undefined) | 4.52 | 0.67 | 3.32 |  |
| C[C@H](Cc1ccccc1)Nc1ncnc2c1ncn2[C@@H]1O[C@H](CO)[C@@H](O)[C@H]1O (stereo in doubt; 1) |  |  |  | MPR [7]: 4.3 |
| OC[C@H]1OC(n2cnc3c(Nc4cccc(F)c4)ncnc32)[C@H](O)[C@@H]1O (some centres undefined) | 2.36 | 0.43 | 2.66 | K [4]: 6360 M⁻¹ |
| COc1cc(Nc2ncnc3c2ncn3C2O[C@H](CO)[C@@H](O)[C@H]2O)cc(OC)c1OC (some centres undefined) | 1.54 |  | 2.8 | Activity [8]: 28% |
| OC[C@H]1OC(n2cnc3c(NCCc4ccccc4Cl)ncnc32)[C@H](O)[C@@H]1O (some centres undefined) | 3.64 | 0.67 | 3.27 | K [4]: 32400 M⁻¹ |
| COc1ccccc1CNc1ncnc2c1ncn2[C@@H]1O[C@H](CO)[C@@H](O)[C@H]1O | 2.31 |  | 3.3 | MPR [9]: 0.7 |
| OC[C@H]1OC(n2cnc3c(NC4CCc5ccccc5C4)ncnc32)[C@H](O)[C@@H]1O (some centres undefined) | 4.89 |  |  | MPR [7]: 0.14 |
| Cc1ccc(CNc2ncnc3c2ncn3[C@@H]2O[C@H](CO)[C@@H](O)[C@H]2O)cc1 | 3.04 | 0.04 | 3.19 |  |
| OC[C@H]1O[C@@H](n2cnc3c(NCc4ccc(F)cc4)ncnc32)[C@H](O)[C@@H]1O | 1.57 | 0.36 | 3.32 |  |
| Cc1cccc(C)c1Nc1ncnc2c1ncn2C1O[C@H](CO)[C@@H](O)[C@H]1O (some centres undefined) | 1.52 |  |  | Activity [10]: 22% |
| OC[C@H]1OC(n2cnc3c(NCCc4ccc(F)cc4)ncnc32)[C@H](O)[C@@H]1O (some centres undefined) | 2.39 | 2.1 | 3.32 | K [4]: 10300 M⁻¹ |
| Cc1ccc(CCNc2ncnc3c2ncn3C2O[C@H](CO)[C@@H](O)[C@H]2O)cc1 (some centres undefined) | 4.76 | 0.46 | 3.4 |  |
